{"source": "patent US9273006B2", "about": "“Anabolic compounds for treating and preventing bone loss diseases” (SYDDANSK UNIVERSITET, priority 2012, dated 2016)", "key": {"hMSC-TERT [1]": {"system": "hMSC-TERT", "test": "In vitro osteoblast differentiation in OIM (ALP activity, alizarin red, qRT-PCR)", "assay_type": "cell-based, human", "protocol": "(§1) F) H-8 enhances ALP activity of hMSC, in the absence of serum.\nAdding H-8 (25 μM) to the osteogenic induction media, during 9-days in vitro hMSC osteogenic differentiation, enhanced expression of osteoblastic markers as shown by qRT-PCR analysis. **P≦0.05, ***P≦0.005 (significant difference as compared to vehicle).\nH-8 was added (25 μM) to the OIM at different time points during 12-days period.\n(§2) In order to confirm the results obtained from the initial screen, the present inventors incubated hMSC-TERT and primary human bone marrow derived MSC (hBMSC) in osteogenic induction medium (OIM) supplemented with H-8 (dose range 1-30 μM) or vehicle. […] To determine the stage of differentiation at which the effect of H-8 was most apparent, the present inventors added H-8 (25 μM) to the OIM at different time points during 12-days period."}, "[2]": {"system": "primary human bone marrow derived MSC (hBMSC)", "test": "In vitro osteoblast differentiation in OIM (ALP activity, alizarin red)", "assay_type": "cell-based", "conditions": "dose range 1-30 μM", "protocol": "as §1, §2"}, "[3]": {"system": "human adipose tissue derived MSC (hAT-MSC)", "test": "In vitro osteoblast differentiation (ALP activity, alizarin red)", "assay_type": "cell-based"}, "hMSC": {"system": "hMSC", "test": "hMSC survival in vitro, western blot of activated Caspase-3", "assay_type": "cell-based, human", "conditions": "25 μM, during osteoblast differentiation", "protocol": "A) H-8 treatment of hMSC (25 μM) during osteoblast differentiation, decreased apoptosis, as shown by western blot analysis of activated Caspase-3.\nTo investigate the effect of H-8 on hMSC survival in vitro, activation of Caspase-3 was evaluated, using western blot analysis."}, "[4]": {"system": "hMSC implanted in mouse calvarial defect", "test": "hMSC survival in vivo, mouse calvarial defect model", "conditions": "4 weeks after implantation of treated hMSC"}, "[5]": {"system": "hMSC-TERT implants in SCID/NOD mice", "test": "In vivo heterotopic bone formation of hMSC-TERT implanted with HA/TCP", "protocol": "(A) Treatment of hMSC-TERT4 with H-8 (25 μM) for 7 days in vitro enhanced the in vivo heterotopic bone formation ability of the cells. (B) Systemic injection of H-8 at 30 mg/kg/day enhanced the amount of the heterotopic bone formed by hMSC-TERT4 implanted in SCID/NOD mice. (C) Human specific Vimentin staining confirmed that the newly formed heterotopic bone is of human origin. *P≦0.05 (significant difference as compared to vehicle).\nTo determine the effect of H-8 treatment on the ability of hMSC to form heterotopic bone in vivo, hMSC-TERT were treated with H-8 (25 μM) or vehicle for 7 days, mixed with hydroxyapatite/tricalcium phosphate (HA/TCP) as osteoconductive carrier, and implanted subcutaneously in SCID/NOD mice. […] Human specific vimentin staining confirmed that the newly formed heterotopic bone is of human origin (FIG. 6C)."}, "[6]": {"test": "Necropsy after systemic H-8 injection", "assay_type": "in vivo", "conditions": "systemic injection 5, 15, 30 mg/kg/day for 4 weeks"}, "hMSC-TERT [7]": {"system": "hMSC-TERT", "test": "Adipocyte differentiation (Oil red O, qRT-PCR of adipogenic markers)", "assay_type": "cell-based, human", "conditions": "25 μM in adipogenic induction media; Oil red O day 15, qRT-PCR day 10", "protocol": "To determine the effect of H-8 on adipocyte differentiation of hMSC, H-8 was added (25 μM) to the adipogenic induction media (AIM) of hMSC-TERT."}, "[8]": {"system": "human CD14+ mononuclear cells", "test": "Osteoclast formation, count of TRAP-positive multinucleated cells", "assay_type": "cell-based", "conditions": "25 μM, day 5 of differentiation", "excerpt": "The present inventors determined the effects of H-8 on osteoclast formation in peripheral blood-derived human CD14+ mononuclear cell cultures."}, "TGFβ signaling in hMSC": {"system": "TGFβ signaling in hMSC", "test": "TGFβ signaling, qRT-PCR and western blot", "assay_type": "cell-based, human", "conditions": "5 and 15 minutes after treatment", "excerpt": "(C): Western blot analysis of p-Smad and p-Akt reveled that the enahcing effect of H-8 on osteoblast differentiation of hMSC is mediated through activation of non-canonical TGFβ signaling. (D): SB431542, a selective inhibitor of TGWU activity abolished the enhanced phosphorylation of Akt and smad2 after H-8 treatment.\nTo investigate the mechanisms of the enhancing effects of H-8 on osteoblast differentiation of hMSC, the present inventors performed a DNA microarray analysis of hMSC-TERT under osteogenic culture conditions, in the presence or absence of the H-8 (25 μM). […] In order to identify the pathway that is primarily regulated by H-8 treatment, phosphorylation of canonical and non-canonical TGFβ signaling components was evaluated 5 minutes and 15 minutes after H-8 treatment. The inventors also evaluated the effect of TGFβ3 treatment on H-8 induced phosphorylation of Smad2 and Akt. […] This observation further confirms that the enhancing effect of H-8 on osteoblast differentiation of hMSC is mediated through regulation of TGFβ signaling."}, "hMSC-TERT [9]": {"system": "hMSC-TERT", "conditions": "6 days after induction, hMSC-TERT"}, "protein kinase G (PKG)": {"target": "T1, protein kinase G (PKG) (Homo sapiens, UniProt Q13976)", "T1 sequence (Q13976 1-671)": "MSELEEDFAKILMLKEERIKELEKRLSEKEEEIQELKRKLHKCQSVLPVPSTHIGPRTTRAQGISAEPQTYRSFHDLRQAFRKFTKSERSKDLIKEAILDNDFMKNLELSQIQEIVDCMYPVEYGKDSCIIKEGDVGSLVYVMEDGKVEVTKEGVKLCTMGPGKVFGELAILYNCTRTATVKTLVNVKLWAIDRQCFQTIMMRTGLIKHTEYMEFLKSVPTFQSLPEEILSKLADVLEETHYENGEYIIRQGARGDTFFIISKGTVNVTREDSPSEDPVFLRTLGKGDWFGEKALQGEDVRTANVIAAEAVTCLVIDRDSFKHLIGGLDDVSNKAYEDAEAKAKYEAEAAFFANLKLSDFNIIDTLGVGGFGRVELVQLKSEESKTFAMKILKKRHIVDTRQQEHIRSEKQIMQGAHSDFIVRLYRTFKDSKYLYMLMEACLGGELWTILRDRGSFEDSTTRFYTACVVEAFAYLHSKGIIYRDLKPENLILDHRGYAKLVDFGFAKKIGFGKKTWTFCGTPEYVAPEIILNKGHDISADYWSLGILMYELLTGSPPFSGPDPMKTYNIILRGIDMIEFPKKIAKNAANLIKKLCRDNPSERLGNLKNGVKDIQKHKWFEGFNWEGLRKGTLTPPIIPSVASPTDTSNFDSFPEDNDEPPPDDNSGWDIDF", "conditions": "cited from earlier work"}, "protein kinase C(PKC)": {"target": "protein kinase C(PKC)", "conditions": "cited from earlier work"}, "[10]": {"target": "Myosin Light Chain Kinase (MLCK) (Homo sapiens, UniProt Q15746)", "sequence (Q15746 whole entry)": "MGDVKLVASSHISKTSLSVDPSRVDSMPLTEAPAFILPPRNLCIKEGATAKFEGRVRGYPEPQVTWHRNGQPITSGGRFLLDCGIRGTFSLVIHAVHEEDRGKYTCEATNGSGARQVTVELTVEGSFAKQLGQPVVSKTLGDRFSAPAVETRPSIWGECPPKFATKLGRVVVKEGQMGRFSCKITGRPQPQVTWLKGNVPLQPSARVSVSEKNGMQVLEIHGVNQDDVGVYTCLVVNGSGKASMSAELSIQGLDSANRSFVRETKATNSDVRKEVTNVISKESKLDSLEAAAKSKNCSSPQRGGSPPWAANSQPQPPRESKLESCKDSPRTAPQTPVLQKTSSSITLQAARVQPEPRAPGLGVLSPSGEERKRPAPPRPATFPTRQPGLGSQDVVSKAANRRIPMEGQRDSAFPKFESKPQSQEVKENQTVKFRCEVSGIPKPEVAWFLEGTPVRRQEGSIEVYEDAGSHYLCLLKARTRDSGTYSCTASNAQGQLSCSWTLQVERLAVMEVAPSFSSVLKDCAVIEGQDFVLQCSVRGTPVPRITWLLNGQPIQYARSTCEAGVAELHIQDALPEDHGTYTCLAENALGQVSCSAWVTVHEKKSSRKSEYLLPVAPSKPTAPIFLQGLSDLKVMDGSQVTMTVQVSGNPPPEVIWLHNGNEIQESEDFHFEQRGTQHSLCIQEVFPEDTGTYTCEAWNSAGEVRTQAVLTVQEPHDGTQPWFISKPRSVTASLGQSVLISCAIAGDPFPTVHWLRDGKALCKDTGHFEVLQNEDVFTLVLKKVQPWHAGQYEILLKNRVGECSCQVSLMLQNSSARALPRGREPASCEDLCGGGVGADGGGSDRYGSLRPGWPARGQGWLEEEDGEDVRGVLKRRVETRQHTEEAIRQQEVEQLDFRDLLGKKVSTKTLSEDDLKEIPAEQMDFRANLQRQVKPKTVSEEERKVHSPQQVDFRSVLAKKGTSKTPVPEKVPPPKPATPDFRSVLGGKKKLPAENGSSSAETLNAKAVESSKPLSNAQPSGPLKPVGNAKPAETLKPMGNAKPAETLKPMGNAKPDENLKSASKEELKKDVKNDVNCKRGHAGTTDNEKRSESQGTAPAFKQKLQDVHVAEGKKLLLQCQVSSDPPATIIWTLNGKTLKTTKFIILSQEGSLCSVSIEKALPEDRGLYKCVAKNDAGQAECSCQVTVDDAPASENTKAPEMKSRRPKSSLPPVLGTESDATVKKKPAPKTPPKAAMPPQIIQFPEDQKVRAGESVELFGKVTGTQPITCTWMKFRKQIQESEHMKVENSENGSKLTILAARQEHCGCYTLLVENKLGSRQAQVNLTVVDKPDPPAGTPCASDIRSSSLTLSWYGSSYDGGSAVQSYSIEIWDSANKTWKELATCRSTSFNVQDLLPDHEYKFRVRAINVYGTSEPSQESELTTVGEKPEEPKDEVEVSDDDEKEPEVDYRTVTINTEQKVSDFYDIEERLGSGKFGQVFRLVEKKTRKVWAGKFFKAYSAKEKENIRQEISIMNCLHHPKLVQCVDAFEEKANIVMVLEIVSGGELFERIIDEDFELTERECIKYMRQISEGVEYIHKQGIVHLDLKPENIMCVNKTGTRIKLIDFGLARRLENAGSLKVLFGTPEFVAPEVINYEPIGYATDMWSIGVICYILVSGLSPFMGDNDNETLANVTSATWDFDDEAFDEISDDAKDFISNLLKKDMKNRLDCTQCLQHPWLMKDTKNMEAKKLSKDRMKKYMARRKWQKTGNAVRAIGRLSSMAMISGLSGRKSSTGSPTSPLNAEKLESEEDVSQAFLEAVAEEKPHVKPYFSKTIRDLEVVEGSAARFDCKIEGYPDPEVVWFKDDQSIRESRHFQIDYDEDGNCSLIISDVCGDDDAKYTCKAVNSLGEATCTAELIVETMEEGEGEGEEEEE", "conditions": "cited from earlier work"}, "osteoclast": {"system": "osteoclast", "conditions": "table 1 of Soerensen et al; cited from earlier work"}}, "note": "Like-named read-outs stand apart in the source and are kept apart here."}
{"molecule": "CNCCNS(=O)(=O)c1cccc2cnccc12", "note": "[H-8, N-[2-(methylamino)ethyl]-5-isoquinolinesulfonamide]", "values": [{"measurement": "stage of differentiation at which H-8 is needed (matrix mineralization)", "setting": "hMSC-TERT [1]; 25 μM added at different time points during 12-days period", "value": "needed during the first 9 days to exert its effects"}, {"measurement": "gene expression of osteogenic markers (qRT-PCR)", "setting": "hMSC-TERT [1]; 25 μM, 9-days in vitro hMSC osteogenic differentiation", "value": "enhanced gene expression of early and late osteogenic markers"}, {"measurement": "ALP enhancing effect in serum free induction media", "setting": "hMSC-TERT [1]; 25 μM, serum free induction media", "value": "persists in the absence of serum"}, {"measurement": "optimal concentration for highest enhancement of osteoblast differentiation of hMSC", "setting": "hMSC-TERT [1]; based on in vitro studies", "value": "20 to 30", "unit": "µM"}, {"measurement": "dependence of ALP enhancing effect on differentiation inducers", "setting": "hMSC-TERT [1]; each component of osteoblastic induction media removed", "value": "not dependent on differentiation inducers"}, {"measurement": "ALP activity", "setting": "hMSC-TERT [1]; hMSC-TERT, OIM, dose range 1-30 μM, day 6, dose-dependent", "value": "significantly increased"}, {"measurement": "matrix mineralization (alizarin red staining)", "setting": "hMSC-TERT [1]; hMSC-TERT, OIM, dose range 1-30 μM, day 12, dose-dependent", "value": "significantly increased"}, {"measurement": "ALP activity", "setting": "[2]; day 6, dose-dependent", "value": "significantly increased"}, {"measurement": "matrix mineralization (alizarin red staining)", "setting": "[2]; day 12, dose-dependent", "value": "significantly increased"}, {"measurement": "matrix mineralization (alizarin red staining)", "setting": "[3]; 25 μM, day 10 of differentiation", "value": "enhanced matrix mineralization"}, {"measurement": "ALP activity", "setting": "[3]; day 6 of osteoblastic differentiation", "value": "dose dependent enhancing effect"}, {"measurement": "activated Caspase-3 (western blot), hMSC survival", "setting": "hMSC", "value": "reduced level of activated Caspase-3"}, {"measurement": "hMSC survival in vivo (luminescent imaging)", "setting": "[4]", "value": "increased hMSC survival"}, {"measurement": "heterotopic bone formation, cells pre-treated in vitro", "setting": "[5]; hMSC-TERT treated 25 μM for 7 days, implanted subcutaneously, histology after 8 weeks", "value": "enhanced amount of heterotopic bone formation"}, {"measurement": "heterotopic bone formation, systemic treatment", "setting": "[5]; intraperitoneally 30 mg/kg/day for 4 weeks after implantation of HA/TCP-hMSC-TERT", "value": "increased amount of heterotopic bone formation"}, {"measurement": "necropsy, toxic effects", "setting": "[6]", "value": "all tissues looked normal"}, {"measurement": "adipocyte differentiation of hMSC", "setting": "hMSC-TERT [7]", "value": "does not affect adipocyte differentiation"}, {"measurement": "osteoclast formation (TRAP-positive multinucleated cells)", "setting": "[8]", "value": "did not affect osteoclast formation"}, {"measurement": "Akt phosphorylation (western blot)", "setting": "TGFβ signaling in hMSC", "value": "enhanced Akt phosphorylation at both 5 and 15 minutes"}, {"measurement": "Smad2 phosphorylation (western blot)", "setting": "TGFβ signaling in hMSC", "value": "enhanced Smad2 phosphorylation was detected only 15 minutes after H-8 treatment"}, {"measurement": "Relative ALP activity", "setting": "hMSC-TERT [9]; 1 μM inhibitor in osteogenic inducing media", "value": 1.701}, {"measurement": "Relative ALP activity", "setting": "hMSC-TERT [9]; 10 μM inhibitor in osteogenic inducing media", "value": 1.87}, {"measurement": "IC50", "setting": "protein kinase G (PKG)", "value": 0.48, "unit": "µM"}, {"measurement": "IC50", "setting": "protein kinase C(PKC)", "value": 15, "unit": "µM"}, {"measurement": "IC50", "setting": "[10]", "value": 68, "unit": "µM"}, {"measurement": "osteoclastic acid secretion", "setting": "osteoclast", "value": "no effect on osteoclastic acid secretion"}]}
